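These data come from cells grown in 96-well plates and exposed to compound for 48 hours at five concentrations. Abbreviation: GI50, concentration required for 50% inhibition of growth.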 The source made the active and inactive calls. Cut-off read from the data, not from the text of the source: active = GI50 up to about 1.1 µM and inactive = higher.
Assays:
Experiment in all cases: DTP human tumour cell line panel, 48 h
A549 = system: A549
ACHN = system: ACHN
CAKI-1 = system: CAKI-1
CCRF-CEM = system: CCRF-CEM
EKVX = system: EKVX
HOP-92 = system: HOP-92
IGROV-1 = system: IGROV-1
KM12 = system: KM12
M14 = system: M14
MCF7 = system: MCF7
MDA-N = system: MDA-N
NCI-H460 = system: NCI-H460
SK-OV-3 = system: SK-OV-3
SNB-75 = system: SNB-75
SW-620 = system: SW-620
UACC-257 = system: UACC-257
UO-31 = system: UO-31
NCI-H226 = system: NCI-H226
OVCAR-4 = system: OVCAR-4

Measured: GI50

CCC1C(=O)C(O)[C@H]2[C@@H]3C(O)CC4=CC(=O)CC[C@]4(C)[C@H]3CC[C@]12C (stereo not given in full)
inactive: A549 > 50 µM | ACHN > 50 µM | CAKI-1 > 50 µM | CCRF-CEM > 50 µM | EKVX > 50 µM | HOP-92 > 50 µM | IGROV-1 > 50 µM | KM12 > 50 µM | M14 > 50 µM | MCF7 > 50 µM | MDA-N > 50 µM | NCI-H460 > 50 µM | SK-OV-3 > 50 µM | SNB-75 > 50 µM | SW-620 > 50 µM | UACC-257 > 50 µM | UO-31 > 50 µM

CCOC(=O)Cc1csc(N/C=C2/C(=O)Oc3ccccc3C2=O)n1
inactive: A549 34.2 µM | ACHN 12 µM | CAKI-1 26.2 µM | CCRF-CEM 26.6 µM | EKVX 35.8 µM | HOP-92 11.7 µM | IGROV-1 19.1 µM | KM12 27.8 µM | M14 23.8 µM | MCF7 40.8 µM | NCI-H226 22.6 µM | NCI-H460 45.4 µM | OVCAR-4 31.7 µM | SK-OV-3 35.4 µM | SNB-75 10.9 µM | SW-620 21.6 µM | UACC-257 20.8 µM | UO-31 14.9 µM

Cc1cc2c(C(C)C)c(O)c(O)c(/C=N/c3cc(C(F)(F)F)ccc3Cl)c2c(O)c1-c1c(C)cc2c(C(C)C)c(O)c(O)c(/C=N/c3cc(C(F)(F)F)ccc3Cl)c2c1O
inactive: A549 38.5 µM | ACHN 24.9 µM | CAKI-1 48.3 µM | CCRF-CEM > 100 µM | EKVX 98.6 µM | HOP-92 16.6 µM | IGROV-1 25.1 µM | KM12 30.1 µM | M14 75.3 µM | MCF7 27.7 µM | NCI-H226 29 µM | NCI-H460 31.3 µM | SK-OV-3 12.5 µM | SW-620 58.2 µM | UACC-257 37.4 µM | UO-31 30.2 µM

CCOC(=O)C12C3CCC1C2C(=O)C3 (stereo not given)
inactive: A549 > 100 µM | ACHN > 100 µM | CAKI-1 > 100 µM | CCRF-CEM > 100 µM | EKVX > 100 µM | IGROV-1 > 100 µM | KM12 > 100 µM | M14 > 100 µM | MCF7 > 100 µM | MDA-N > 100 µM | NCI-H226 > 100 µM | NCI-H460 > 100 µM | OVCAR-4 > 100 µM | SK-OV-3 > 100 µM | SNB-75 > 100 µM | SW-620 > 100 µM | UACC-257 > 100 µM | UO-31 > 100 µM

C#Cc1cc(Br)c(OC(=O)C(C)(C)C)c(-c2cc(C#C)cc(Br)c2OC(=O)C(C)(C)C)c1
inactive: A549 31.8 µM | ACHN 21.4 µM | CAKI-1 61.8 µM | CCRF-CEM 10.3 µM | EKVX 31.2 µM | HOP-92 36.9 µM | IGROV-1 76.9 µM | KM12 37.9 µM | M14 43.7 µM | MCF7 26.7 µM | MDA-N 31.8 µM | NCI-H460 42.5 µM | OVCAR-4 73.1 µM | SK-OV-3 > 100 µM | SW-620 27 µM | UACC-257 36.1 µM

Cn1c(=O)[nH]c2sc3c(c2c1=N)CCCC3
inactive: ACHN > 75 µM | CAKI-1 > 75 µM | EKVX 54.7 µM | IGROV-1 > 75 µM | KM12 > 75 µM | MCF7 > 75 µM | MDA-N > 75 µM | NCI-H226 > 75 µM | NCI-H460 > 75 µM | OVCAR-4 > 75 µM | SNB-75 > 75 µM | SW-620 > 75 µM | UACC-257 > 75 µM | UO-31 > 75 µM

Oc1cccc(Nc2cc(O)nc(O)n2)c1
inactive: A549 > 100 µM | ACHN > 100 µM | CAKI-1 > 100 µM | CCRF-CEM > 100 µM | EKVX > 100 µM | HOP-92 66.8 µM | IGROV-1 > 100 µM | KM12 > 100 µM | M14 > 100 µM | MDA-N > 100 µM | NCI-H226 > 100 µM | NCI-H460 > 100 µM | OVCAR-4 > 100 µM | SK-OV-3 67.9 µM | SNB-75 > 100 µM | SW-620 > 100 µM | UACC-257 > 100 µM | UO-31 > 100 µM

N#Cc1nc(Cc2ccccc2)oc1N
inactive: A549 > 100 µM | ACHN > 100 µM | CAKI-1 > 100 µM | CCRF-CEM 44.3 µM | EKVX > 100 µM | IGROV-1 > 100 µM | KM12 > 100 µM | M14 > 100 µM | MCF7 > 100 µM | MDA-N > 100 µM | NCI-H226 > 100 µM | NCI-H460 > 100 µM | OVCAR-4 > 100 µM | SK-OV-3 > 100 µM | SW-620 > 100 µM | UACC-257 > 100 µM | UO-31 > 100 µM

CSc1c(C(=O)Nc2ccccc2)c(N)n(N)c(=O)c1C#N
inactive: A549 > 100 µM | CAKI-1 > 100 µM | CCRF-CEM > 100 µM | EKVX > 100 µM | IGROV-1 > 100 µM | KM12 > 100 µM | M14 > 100 µM | MCF7 > 100 µM | MDA-N > 100 µM | NCI-H226 > 100 µM | NCI-H460 > 100 µM | OVCAR-4 > 100 µM | SK-OV-3 > 100 µM | SNB-75 > 100 µM | SW-620 > 100 µM | UACC-257 > 100 µM | UO-31 > 100 µM

N#CC12C(=O)NC(=O)C1(C#N)C1C=CC2CC1 (stereo not given)
inactive: A549 > 100 µM | ACHN > 100 µM | CAKI-1 > 100 µM | CCRF-CEM > 100 µM | EKVX > 100 µM | KM12 > 100 µM | M14 > 100 µM | MCF7 > 100 µM | MDA-N > 100 µM | NCI-H226 > 100 µM | OVCAR-4 > 100 µM | SK-OV-3 > 100 µM | SNB-75 > 100 µM | SW-620 > 100 µM | UACC-257 > 100 µM | UO-31 > 100 µM

Cc1cc(C(=O)CCCCOc2ccc(C3=NCCO3)cc2)c(C)n1C
inactive: A549 > 10 µM | ACHN 35.4 µM | CAKI-1 37.2 µM | CCRF-CEM 20.6 µM | EKVX 35.8 µM | IGROV-1 37.2 µM | KM12 38.5 µM | M14 37.8 µM | MCF7 33.3 µM | MDA-N 28.1 µM | NCI-H226 29.3 µM | OVCAR-4 36.5 µM | SK-OV-3 49.7 µM | SNB-75 21 µM | SW-620 33.2 µM | UACC-257 3.98 µM | UO-31 39.9 µM

CC(C)(C)c1ccc2c(c1)C#Cc1cc(C(C)(C)C)ccc1OCCCO2
inactive: A549 > 100 µM | ACHN > 100 µM | CAKI-1 > 100 µM | CCRF-CEM > 100 µM | EKVX > 100 µM | IGROV-1 > 100 µM | KM12 > 100 µM | M14 > 100 µM | MCF7 > 100 µM | MDA-N > 100 µM | NCI-H226 > 100 µM | NCI-H460 > 100 µM | OVCAR-4 > 100 µM | SW-620 > 100 µM | UACC-257 > 100 µM | UO-31 > 100 µM

N#CC(/N=N/c1ccccc1C(=O)O)C(N)=O (stereo not given)
inactive: A549 > 100 µM | ACHN 68.7 µM | CAKI-1 > 100 µM | CCRF-CEM > 100 µM | EKVX > 100 µM | KM12 > 100 µM | M14 > 100 µM | MDA-N > 100 µM | NCI-H226 82.8 µM | NCI-H460 > 100 µM | OVCAR-4 > 100 µM | SNB-75 60.3 µM | SW-620 > 100 µM | UACC-257 > 100 µM | UO-31 > 100 µM

CC1=C([S+]([O-])c2ccc(C)cc2)CCC2(CCCCO2)O1 (stereo not given)
inactive: ACHN > 100 µM | CAKI-1 > 100 µM | EKVX > 100 µM | IGROV-1 > 100 µM | KM12 > 100 µM | MCF7 > 100 µM | NCI-H226 > 100 µM | NCI-H460 > 100 µM | OVCAR-4 > 100 µM | SNB-75 > 100 µM | SW-620 > 100 µM | UACC-257 > 100 µM | UO-31 > 100 µM

Cc1cc2c(cc1Cl)SC(NN(C)C)=NS2(=O)=O
inactive: A549 > 10 µM | ACHN > 10 µM | CAKI-1 > 10 µM | CCRF-CEM > 10 µM | EKVX > 10 µM | IGROV-1 > 10 µM | KM12 > 10 µM | M14 > 10 µM | MCF7 > 10 µM | MDA-N > 10 µM | NCI-H226 > 10 µM | NCI-H460 > 10 µM | OVCAR-4 > 10 µM | SK-OV-3 > 10 µM | SNB-75 > 10 µM | SW-620 > 10 µM | UACC-257 > 10 µM

COC(=O)Cc1ccc2c(cnn2-c2ccccc2)c1OC
inactive: A549 > 10 µM | ACHN > 10 µM | CAKI-1 > 10 µM | CCRF-CEM > 10 µM | EKVX 9.75 µM | IGROV-1 > 10 µM | KM12 > 10 µM | M14 > 10 µM | MCF7 > 10 µM | MDA-N > 10 µM | NCI-H226 > 10 µM | NCI-H460 > 10 µM | OVCAR-4 > 10 µM | SK-OV-3 > 10 µM | SNB-75 > 10 µM | SW-620 > 10 µM | UACC-257 > 10 µM

O=C1[C@H](c2ccccc2)C2c3ccccc3CCN12 (stereo not given in full)
inactive: A549 > 10 µM | ACHN > 10 µM | CAKI-1 > 10 µM | CCRF-CEM > 10 µM | EKVX > 10 µM | IGROV-1 > 10 µM | KM12 > 10 µM | M14 > 10 µM | MCF7 > 10 µM | MDA-N > 10 µM | NCI-H226 > 10 µM | NCI-H460 > 10 µM | OVCAR-4 > 10 µM | SK-OV-3 > 10 µM | SNB-75 > 100 µM | SW-620 > 10 µM | UACC-257 > 10 µM | UO-31 > 100 µM

Reference: ChEMBL document CHEMBL1201862, “PubChem BioAssay data set” (2004)
